Measurements as given in publication PMC8481833, “Kinetic Characterization and Inhibitor Screening of Pyruvate Kinase I From Babesia microti” (Frontiers in Microbiology, 2021).
Read-outs that look alike come from different tables or passages of the source. Values belong to the compound of their own block, whether it stands above or below them.

Columns and labels:
PYK from P. falciparum = conditions: cited from earlier work
PYK from T. gondii = conditions: cited from earlier work
rBmPYKI [1] = target: T1, rBmPYKI (Babesia microti, UniProt A0A1N6LXR4); assay: Enzyme kinetics of rBmPYKI on substrates PEP and ADP; type: biochemical; conditions: substrate of rBmPYKI
Method: To determine the enzymatic activity of purified rBmPYKI, the GST tag was removed from the recombinant protein; and the indirect coupled lactate dehydrogenase (LDH) assay was applied. Recombinant B. microti LDH (rBmLDH) protein, the only one isoform in B. microti, was expressed and purified according to previously published protocol ([Yu et al., 2019]). The standard enzyme kinetic assay was conducted by monitoring the decrease in NADH at a wavelength of 340 nm using a microplate reader (BioTek, Winooski, VT, United States). One unit of the PYK activity here was defined as 1 μmol of NADH oxidized per minute at 37°C. The samples were continuously measured at 2, 7, 12, 17, 22, and 27 min. To determine the effects of pH and the concentration of Mg^2+ and K^+ on rBmPYKI, the assay was performed in the pH range of 5.5–8.5, and the Mg^2+ and K^+ concentrations ranged from 0 to 200 mM (0, 25, 50, 75, 100, 125, 150, 175, and 200 mM). The standard assay mixture (200 μl) contained 50 mM of Tris-HCl (pH 7.0), 50 mM of MgCl2, 20 mM of KCl, 0.5 mM of NADH (MilliporeSigma), 3 mM of PEP (MilliporeSigma), 1 mM of ADP (MilliporeSigma), 100 ng of rBmLDH (20 U), and 100 ng of rBmPYKI. The initial velocity for the rate of […] of NADH in the first 5 min was calculated, and the relative percentage activity was determined. The kinetic parameters for PEP (at 0.5, 1, 2, 3, 4, and 5 mM) under saturating ADP conditions (3 mM) were determined. The Michaelis–Menten constant (Km) for ADP under 7 mM of PEP (saturation) was determined at 0.05, 0.1, 0.2, 0.4, 0.6, 0.8, 1.0, 1.5, and 2.0 mM.

[2] = test system: corresponding enzymes from mammals; conditions: cited from earlier work
rBmLDH = rBmLDH (Babesia microti, UniProt I7J7V6); assay: biochemical; type: biochemical
rBmPYKI [3] = target: T1, rBmPYKI; assay: biochemical; type: biochemical
[4] = Cytotoxicity assay, Cell Counting Kit-8, HFF cells; conditions: human
[5] = Cytotoxicity assay, Cell Counting Kit-8, Vero cells; conditions: African green monkey
B. microti = assay: Growth inhibition of Babesia microti by in vitro culture; type: cell-based; conditions: for IC50: read-out: IC50 B. microti
Method: Infected mouse blood was collected and centrifuged at 845 × g for 5 min, and the infected mouse RBCs was isolated. The RBCs infected by B. microti were diluted to 5% with uninfected mouse and human RBCs (10:1). […] Drug-free wells were set up as blank control. All treatments were carried out in triplicate. After 72 h of incubation, parasitemia was examined by Giemsa staining under a microscope.

in vitro [6] = conditions: human
in vitro [7] = conditions: African green monkey

rBmLDH, sequence (I7J7V6 1-332): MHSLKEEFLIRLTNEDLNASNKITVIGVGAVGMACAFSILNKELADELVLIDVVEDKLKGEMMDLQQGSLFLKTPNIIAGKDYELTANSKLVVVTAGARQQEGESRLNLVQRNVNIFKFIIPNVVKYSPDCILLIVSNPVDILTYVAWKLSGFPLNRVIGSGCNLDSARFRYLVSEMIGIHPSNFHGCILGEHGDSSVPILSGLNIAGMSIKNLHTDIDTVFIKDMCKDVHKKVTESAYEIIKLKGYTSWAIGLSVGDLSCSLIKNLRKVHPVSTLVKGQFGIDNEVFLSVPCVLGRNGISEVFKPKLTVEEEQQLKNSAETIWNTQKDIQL
T1 sequence (A0A1N6LXR4 1-489): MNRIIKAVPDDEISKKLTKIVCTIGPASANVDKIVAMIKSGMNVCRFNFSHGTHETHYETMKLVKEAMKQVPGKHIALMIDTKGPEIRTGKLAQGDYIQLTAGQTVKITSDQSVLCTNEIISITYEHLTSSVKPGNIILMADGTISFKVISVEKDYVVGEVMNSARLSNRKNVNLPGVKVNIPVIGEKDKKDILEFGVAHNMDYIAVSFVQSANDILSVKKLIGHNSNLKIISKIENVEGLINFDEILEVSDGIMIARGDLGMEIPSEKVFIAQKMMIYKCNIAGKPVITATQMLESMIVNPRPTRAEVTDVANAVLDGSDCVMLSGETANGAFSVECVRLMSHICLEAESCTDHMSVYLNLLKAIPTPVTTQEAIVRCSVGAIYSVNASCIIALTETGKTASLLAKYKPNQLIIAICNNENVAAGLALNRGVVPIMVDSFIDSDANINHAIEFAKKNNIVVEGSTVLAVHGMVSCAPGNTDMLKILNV

Compound: C=C(OP(=O)(O)O)C(=O)O [PEP, phosphoenolpyruvate]
Km (PYK from P. falciparum): 190 µM
Km (PYK from T. gondii): 750 µM

Compound: Nc1ncnc2c1ncn2[C@@H]1O[C@H](COP(=O)(O)OP(=O)(O)O)[C@@H](O)[C@H]1O [ADP]
Km (PYK from P. falciparum): 126 µM
Kcat (rBmPYKI [1]): 21.8 S^–1
KcatKM (rBmPYKI [1]): 5.62 × 10^4 S^–1⋅M^–1
Vmax (rBmPYKI [1]): 242 ± 16 U/mg
Km (rBmPYKI [1]; other substrate saturating): 388 ± 87 µM
Km (PYK from T. gondii): 180 µM
Km [2]: 350 µM

Compound: CC(C)=CC[C@@H](O)C1=CC(=O)c2c(O)ccc(O)c2C1=O [Shikonin]
effect on rBmLDH / LDH reaction activity (rBmLDH): did not affect
IC50 (rBmLDH; read-out: IC50 rBmLDH): > 1950 µM
IC50 (rBmPYKI [3]): 187 µM
effect on the activity of rBmPYKI (rBmPYKI [3]): significantly inhibit
CC50 [4]: 0.63 ± 0.4 µM
CC50 [5]: 2.37 ± 0.26 µM
hemolysis of RBCs (B. microti; 100 μM, infected RBC culture): Slight hemolysis
IC50 (B. microti; Babesia microti, 72 h): 1.73 ± 0.69 µM
inhibition at 20 µM (B. microti; Babesia microti, 72 h, read-out: inhibition rate of B. microti growth): 80%

Compound: CC(C)=CCC1=C(O)C(=O)c2ccccc2C1=O [Lapachol]
IC50 (rBmLDH): 721 µM
effect on rBmLDH / LDH reaction activity (rBmLDH): no effect
effect on the activity of rBmPYKI (rBmPYKI [3]): no effect

effect on rBmLDH / LDH reaction activity (rBmLDH): obvious inhibitory effect
IC50 (rBmLDH; read-out: IC50 rBmLDH): 44.2 µM
IC50 (rBmPYKI [3]; read-out: IC50 rBmPYKI): 125 µM
Compound: Cc1ccc(C(=O)Nc2ccc(S(=O)(=O)O)c3cc(S(=O)(=O)O)cc(S(=O)(=O)O)c23)cc1NC(=O)c1cccc(NC(=O)Nc2cccc(C(=O)Nc3cc(C(=O)Nc4ccc(S(=O)(=O)O)c5cc(S(=O)(=O)O)cc(S(=O)(=O)O)c45)ccc3C)c2)c1 [Suramin]

Compound: CC1=C(CSC(=S)N2CCCCC2)C(=O)c2ccccc2C1=O [PKM2 inhibitor]
CC50 (Vero cells): 39.2 ± 5.05 µM
CC50 (HFF cells): 18.6 ± 2.46 µM
effect on rBmLDH / LDH reaction activity (rBmLDH): did not affect
IC50 (rBmLDH; read-out: IC50 rBmLDH): > 1950 µM
effect on the activity of rBmPYKI (rBmPYKI [3]): significantly inhibit
IC50 (rBmPYKI [3]; read-out: IC50 rBmPYKI): 23 µM
inhibition rate of B. microti growth (B. microti; 50 μM, 72 h): 80%
IC50 (B. microti; in vitro culture, 72 h, parasitemia by Giemsa staining): 1.15 ± 0.11 µM

Compound: O=c1cc(-c2ccc(O)cc2)oc2cc(O)cc(O)c12 [Apigenin]
effect on rBmLDH / LDH reaction activity (rBmLDH): did not affect
IC50 (rBmLDH; read-out: IC50 rBmLDH): > 1950 µM
IC50 (rBmPYKI [3]): 70 µM
effect on the activity of rBmPYKI (rBmPYKI [3]): significantly inhibit
CC50 (in vitro [6]): 33 ± 1.18 µM
IC50 (B. microti; Babesia microti, in vitro culture, 72 h, parasitemia by Giemsa staining): 2.1 ± 1.16 µM
CC50 (in vitro [7]): 58.6 ± 2.97 µM

Compound: O=c1cc(-c2ccccc2)oc2ccccc12 [Flavone]
effect on rBmLDH / LDH reaction activity (rBmLDH): no effect
IC50 (rBmLDH; read-out: IC50 rBmLDH): > 1950 µM
effect on the activity of rBmPYKI (rBmPYKI [3]): no effect
IC50 (rBmPYKI [3]; read-out: IC50 rBmPYKI): > 1950 µM
